Assay results published in US11497776B2, “Combination therapy for a stable and long term engraftment” (Yeda Research and Development Co. Ltd., priority 2011, dated 2022).
Read-outs that look alike come from different tables or passages of the source.

Assays:
[1] = tested on: allogeneic recipients (C3H/Hen) transplanted with Balb/c-Nude BM cells
Description: (§1) Low (5×10^6) and high dose (25×10^6) Balb/c-Nude BM cells (providing a source of BM depleted of T cells) were transplanted into allogeneic recipients (C3H/Hen) on day 0 following in-vivo T cell debulking (TCD) with anti-CD4 (clone GK1.5) and anti-CD8 (clone 53.6.72) antibodies (300 μg each; Bio X Cell, NH, USA) delivered on day −6, and exposure to 2.0 Gy total body irradiation (TBI) on day −1. High dose Cyclophosphamide (CY, 100 mg/kg, Baxter Oncology, Germany) was administered on days +3 and +4 post transplant and donor type chimerism was evaluated 35 and 95 days post transplant using fluorescein anti-host and donor H-2 antibodies (e.g. FlTC labeled anti-H-2D^d antibody specific for donor type cells and PE labeled anti-H-2K^k antibody specific for host type cells).
Recipient mice (C3H/Hen) were treated with a conditioning protocol prior to transplantation of a T cell depleted bone marrow transplant. Specifically, mice were in-vivo treated with T cell debulking (TCD) using anti-CD4 and anti-CD8 antibodies delivered on day −6 and by exposure to 2.0 Gy total body irradiation (TBI) on day −1. Next, low (5×10^6) or high dose (25×10^6) Balb/c-Nude BM cells (providing a source of BM depleted of T cells, as Nude mice have miniscule numbers of mature T cells) were transplanted into allogeneic recipients (C3H/Hen) on day 0. High dose cyclophosphamide (CY, 100 mg/kg) was administered on days +3 and +4 post transplant. Evaluation of bone marrow cell engraftment was evaluated by donor type chimerism at 35 and 95 days post transplant.
as §1, with “High” for “Low (5×10^6) and high”, “different doses of irradiation ranging from 1 to 3.5” for “2.0”, “TBI” for “total body irradiation (TBI)”, “30” for “35 and 95”
High dose Cyclophosphamide (CY) was administered on days +3 and +4 post transplant and donor type chimerism was evaluated at 30 days post transplant.
as §1, with “High dose” for “Low (5×10^6) and high dose”, “−1. Different doses of” for “−1. High dose”, “mg/kg, 125 mg/kg or 150 mg/kg,” for “mg/kg,”, “Germany) were” for “Germany) was”, “evaluated 30” for “evaluated 35 and 95”

[2] = tested on: C3H/Hen recipients of T cell depleted BM and high dose CY
Description: Donor (Balb/c) and 3rd party (C57BL/6) skin grafts were transplanted to the mixed chimeric recipients as described above [i.e. to those mice which were previously transplanted with mega dose (25×10^6) T cell depleted BM and were treated with high dose CY] and to the recipient mice that were inoculated with a regular (5×10^6) T cell depleted BM cell dose and were treated with high dose CY.
Tolerance induction was measured by transplantation of donor (Balb/c) and 3rd party (C57BL/6) skin grafts to the mixed chimeric recipients that were transplanted with mega dose (25×10^6) T cell depleted BM and were treated with high dose CY (as described above), in comparison to the recipients that were inoculated with a regular (5×10^6) T cell depleted BM cell dose (as described above).

[3] = 1.0 Gy TBI, 25×10^6 BM, CY 100 mg/kg days +3 and +4, 30 days post transplant
[4] = 2 Gy TBI, 25×10^6 BM, CY 100 mg/kg days +3 and +4, 30 days post transplant
[5] = 2.5, 3 or 3.5 Gy TBI, 25×10^6 BM, CY 100 mg/kg days +3 and +4, 30 days post transplant

O.O=P1(N(CCCl)CCCl)NCCCO1 (stereo not drawn) [CY, 2-[bis(2-chloroethyl)amino]tetrahydro-2H-1,3,2-oxazaphosphorine 2-oxide monohydrate]
effect of increasing CY dose on chimerism ([1]; 125 mg/kg or 150 mg/kg versus 100 mg/kg, 25×10^6 BM, 2 Gy TBI, 30 days post transplant): did not provide a significant enhancement of chimerism
donor type chimerism range [1, 3]: 14.5-58%
percentage of chimeric mice [1, 3]: 83%
donor type chimerism range [1, 4]: 56-85%
percentage of mice exhibiting donor type chimerism [1, 4]: 87%
chimeric recipient mice [1, 5]: 6/6
donor type chimerism range [1, 5]: 58-83%
mixed chimerism at long term follow-up ([1]; 5×10^6 T cell depleted BM + CY, 180 and 225 days post transplant): did not exhibit mixed chimerism
effect of CD8+ cell depletion of the BM preparation on level of chimerism ([1]; 25×10^6 CD8 depleted vs non-depleted Balb/c-Nude BM, CY 100 mg/kg days +3 and +4, 2.0 Gy TBI, 30 days post transplant): did not have any adverse impact
chimerism at long term follow-up ([1]; 25×10^6 T cell depleted BM + high dose CY, 180 and 225 days post transplant): stable and durable
mice in which durable mix chimerism was achieved ([1]; 25×10^6 T cell depleted BM, CY 100 mg/kg days +3 and +4, TCD day −6, 2.0 Gy TBI day −1, day 35 and day 95): 4 out of 7
average donor type chimerism ([1]; CY 100 mg/kg days +3 and +4, 25×10^6 BM, 2 Gy TBI, 30 days post transplant): 57.5±25.8
average donor type chimerism ([1]; CY 125 mg/kg days +3 and +4, 25×10^6 BM, 2 Gy TBI, 30 days post transplant): 66.5±20.6
average donor type chimerism ([1]; CY 150 mg/kg days +3 and +4, 25×10^6 BM, 2 Gy TBI, 30 days post transplant): 67.4±27.4
mice expressing donor type chimerism ([1]; control mice: TCD, 2 Gy TBI and optionally CY, no BM, day 35 and day 95): none
mice expressing donor type chimerism ([1]; regular dose 5×10^6 T cell depleted BM, in the presence or absence of cyclophosphamide, TCD, 2 Gy TBI, day 35 and day 95): none
skin graft outcome ([2]; 5×10^6 T cell depleted BM cells and CY): rejected both the donor and 3rd party skin grafts
chimeric mice that accepted the donor graft and rejected the 3rd party skin grafts ([2]; 25×10^6 T cell depleted BM + high dose CY days +3 and +4): three out of 4
